From US9346809B2 (LEO PHARMA A/S, priority 2009, dated 2016)
Where two headings read alike, the source gives them in different places.

Assays:
Format in all cases: biochemical
[1] = target: T1, JAK2 (catalytic domain, His-tag) (Homo sapiens, UniProt O60674); test: JAK kinase assay (HTRF, phosphorylation of TK substrate-biotin), JAK2; settings: ATP at Km (4 μM), read-out: JAK2 kinase inhibitory activity (EC50 indicator)
T1 construct: All four purified enzymes contain only the catalytic domain; His (N); purchased Carna Biosciences, Inc; host or cells: baculovirus expression system
Outline: (§1)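 HTRF KinEASE TK format; 1 μM biotinylated peptide, Km ATP: 7 μM (JAK1, 10 mM MgCl2, 50 nM SEB), 4 μM (JAK2), 2 μM (JAK3), 13 μM (TYK2, 50 nM SEB); 5 mM MgCl2 for the latter three. RT 20-30 min, 0.75% DMSO final. Overnight detection, EC50.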

[2] = target: T2, JAK1 (aa 850-1154, catalytic domain, GST-tag) (Homo sapiens, UniProt P23458); test: JAK kinase assay (HTRF, phosphorylation of TK substrate-biotin), JAK1; settings: ATP at Km (7 μM), read-out: JAK1 kinase inhibitory activity (EC50 indicator)
T2 construct: JAK1 (aa 850-1154) and TYK2 (aa 871-1187) are expressed with an N-terminally fused GST-tag; GST (N); purchased Carna Biosciences, Inc; host or cells: baculovirus expression system
Outline: as §1

[3] = target: T3, TYK2 (aa 871-1187, catalytic domain, GST-tag) (Homo sapiens, UniProt P29597); test: JAK kinase assay (HTRF, phosphorylation of TK substrate-biotin), TYK2; settings: ATP at Km (13 μM), read-out: TYK2 kinase inhibitory activity (EC50 indicator)
T3 construct: JAK1 (aa 850-1154) and TYK2 (aa 871-1187) are expressed with an N-terminally fused GST-tag; GST (N); purchased Carna Biosciences, Inc; host or cells: baculovirus expression system
T3 sequence (P29597 871-1187): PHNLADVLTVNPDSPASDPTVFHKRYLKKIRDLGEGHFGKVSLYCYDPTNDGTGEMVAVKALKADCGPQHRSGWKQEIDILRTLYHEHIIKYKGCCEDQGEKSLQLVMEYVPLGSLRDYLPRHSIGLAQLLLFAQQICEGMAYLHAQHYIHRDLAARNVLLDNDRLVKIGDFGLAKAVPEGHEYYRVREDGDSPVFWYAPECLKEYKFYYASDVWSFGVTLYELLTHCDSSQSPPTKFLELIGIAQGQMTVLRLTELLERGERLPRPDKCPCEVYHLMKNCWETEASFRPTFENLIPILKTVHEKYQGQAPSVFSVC
Outline: as §1

[4] = target: T4, JAK3 (catalytic domain, His-tag) (Homo sapiens, UniProt P52333); test: JAK kinase assay (HTRF, phosphorylation of TK substrate-biotin), JAK3; settings: ATP at Km (2 μM), read-out: JAK3 kinase inhibitory activity (EC50 indicator)
T4 construct: All four purified enzymes contain only the catalytic domain; His (N); purchased Carna Biosciences, Inc; host or cells: baculovirus expression system
Outline: as §1

T4 sequence (P52333 822-1111 limits assumed): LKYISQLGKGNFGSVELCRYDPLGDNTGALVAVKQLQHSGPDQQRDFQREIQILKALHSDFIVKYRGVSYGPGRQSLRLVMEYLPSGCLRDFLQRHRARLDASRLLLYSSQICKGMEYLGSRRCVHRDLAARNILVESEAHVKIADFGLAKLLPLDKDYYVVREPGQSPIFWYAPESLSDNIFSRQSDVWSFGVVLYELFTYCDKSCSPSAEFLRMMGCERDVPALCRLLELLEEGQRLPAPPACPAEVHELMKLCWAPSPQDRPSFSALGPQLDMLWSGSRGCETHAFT
T1 sequence (O60674 849-1124 limits assumed): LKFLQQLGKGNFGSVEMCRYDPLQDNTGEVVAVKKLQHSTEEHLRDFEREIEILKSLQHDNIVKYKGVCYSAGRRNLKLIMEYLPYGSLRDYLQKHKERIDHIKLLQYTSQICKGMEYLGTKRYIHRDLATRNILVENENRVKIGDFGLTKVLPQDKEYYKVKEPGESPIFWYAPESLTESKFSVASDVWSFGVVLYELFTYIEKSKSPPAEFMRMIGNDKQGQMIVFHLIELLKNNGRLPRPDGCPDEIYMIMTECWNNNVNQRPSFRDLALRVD
T2 sequence (P23458 850-1154): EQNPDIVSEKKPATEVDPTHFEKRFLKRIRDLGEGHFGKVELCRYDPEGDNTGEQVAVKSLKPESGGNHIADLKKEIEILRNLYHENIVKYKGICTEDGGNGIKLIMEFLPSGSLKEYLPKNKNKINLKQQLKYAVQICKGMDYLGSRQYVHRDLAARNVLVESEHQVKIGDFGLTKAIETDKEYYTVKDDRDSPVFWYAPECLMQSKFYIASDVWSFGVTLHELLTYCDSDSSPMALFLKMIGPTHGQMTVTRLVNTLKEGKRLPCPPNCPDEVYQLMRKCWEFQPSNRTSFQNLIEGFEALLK

EC50 [1] [nM]	EC50 [2] [nM]	EC50 [3] [nM]	EC50 [4] [nM]	EC50 ([1]; HTRF assay) [nM]	EC50 ([2]; HTRF assay) [nM]	EC50 ([3]; HTRF assay) [nM]	EC50 ([4]; HTRF assay) [nM]	Compound
< 100	< 100	> 500	100 to 500					CC(=O)c1cc(C(=O)N2[C@@H]3CC[C@H]2CN(c2ncnc4[nH]ccc24)C3)cs1 [Example 112, 1-{4-[3-(7H-Pyrrolo[2,3-d]pyrimidin-4-yl)-3,8-diaza-bicyclo[3.2.1]octane-8-carbonyl]-thiophen-2-yl}-ethanone]
< 100	< 100	> 500	100 to 500					O=C(c1ccc(-c2ccccc2)cc1)N1CCN(c2ncnc3[nH]ccc23)CC12CC2 [Example 5, Biphenyl-4-yl-[7-(7H-pyrrolo[2,3-d]pyrimidin-4-yl)-4,7-diazaspiro[2.5]oct-4-yl]methanone]
				< 100	100 to 500	> 500	100 to 500	Nc1nc(N2CCN(C(=O)c3cnccn3)C3(CC3)C2)c2cc[nH]c2n1 [Example 302, [7-(2-Amino-7H-pyrrolo[2,3-d]pyrimidin-4-yl)-4,7-diaza-spiro[2.5]oct-4-yl]-pyrazin-2-yl-methanone]
				100 to 500	100 to 500	> 500	100 to 500	Cc1c[nH]c2ncnc(N3CCN(C(=O)Cc4ccc(F)cc4)C4(CC4)C3)c12 [Example 330, 2-(4-Fluoro-phenyl)-1-[7-(5-methyl-7H-pyrrolo[2,3-d]pyrimidin-4-yl)-4,7-diaza-spiro[2.5]oct-4-yl]-ethanone]
				< 100	< 100	100 to 500	< 100	CCCNS(=O)(=O)c1ccc(C(=O)N2CCN(c3ncnc4[nH]ccc34)CC23CC3)cc1 [Example 377, N-Propyl-4-[7-(7H-pyrrolo[2,3-d]pyrimidin-4-yl)-4,7-diaza-spiro[2.5]octane-4-carbonyl]-benzenesulfonamide]
< 100	< 100	100 to 500	< 100					CS(=O)(=O)c1ccc2[nH]c(C(=O)N3C4CCC3CN(c3ncnc5[nH]ccc35)C4)cc2c1 [Example 130, (5-Methanesulfonyl-1H-indol-2-yl)-[3-(7H-pyrrolo[2,3-d]pyrimidin-4-yl)-3,8-diaza-bicyclo[3.2.1]oct-8-yl]-methanone]
				100 to 500	100 to 500	> 500	< 100	Cc1c[nH]c2ncnc(N3CCN(C(=O)Cc4ccc(C(F)(F)F)cc4)C4(CC4)C3)c12 [Example 331, 1-[7-(5-Methyl-7H-pyrrolo[2,3-d]pyrimidin-4-yl)-4,7-diaza-spiro[2.5]oct-4-yl]-2-(4-trifluoromethyl-phenyl)-ethanone]
				> 500	> 500	> 500	> 500	Cc1c[nH]c2ncnc(N3CCN(C(=O)CCC#N)C4(CC4)C3)c12 [Example 335, 4-[7-(5-Methyl-7H-pyrrolo[2,3-d]pyrimidin-4-yl)-4,7-diaza-spiro[2.5]oct-4-yl]-4-oxo-butyronitrile]
< 100	< 100	> 500	< 100					N#CCOc1ccc(CC(=O)N2CCN(c3ncnc4[nH]ccc34)CC23CC3)cc1 [Example 69, (4-{2-Oxo-2-[7-(7H-pyrrolo[2,3-d]pyrimidin-4-yl)-4,7-diaza-spiro[2.5]oct-4-yl]-ethyl}-phenoxy)-acetonitrile]
				< 100	< 100	< 100	< 100	COc1ccc(C(=O)N2CCN(c3ncnc4[nH]ccc34)CC23CC3)s1 [Example 206, (5-Methoxy-thiophen-2-yl)-[7-(7H-pyrrolo[2,3-d]pyrimidin-4-yl)-4,7-diaza-spiro[2.5]oct-4-yl]-methanone]
< 100	< 100	100 to 500	100 to 500					N#CCOc1ccc(C(=O)N2CCN(c3ncnc4[nH]ccc34)CC23CC3)cc1 [Example 68, {4-[7-(7H-Pyrrolo[2,3-d]pyrimidin-4-yl)-4,7-diaza-spiro[2.5]octane-4-carbonyl]-phenoxy}-acetonitrile]
				< 100	< 100	> 500	100 to 500	N#Cc1ccc(C(=O)N2CCN(c3nc(N)nc4[nH]ccc34)CC23CC3)cc1 [Example 303, 4-[7-(2-Amino-7H-pyrrolo[2,3-d]pyrimidin-4-yl)-4,7-diaza-spiro[2.5]octane-4-carbonyl]-benzonitrile]
< 100	< 100	100 to 500	100 to 500					O=C(c1ccccc1)N1CCN(c2ncnc3[nH]ccc23)CC12CC2 [Example 27, Phenyl-[7-(7H-pyrrolo[2,3-d]pyrimidin-4-yl)-4,7-diazaspiro[2.5]oct-4-yl]methanone]
				< 100	< 100	< 100	< 100	COc1cc(C(=O)N2[C@@H]3CC[C@H]2CN(c2ncnc4[nH]ccc24)C3)ccc1S(N)(=O)=O [Example 390, 2-Methoxy-4-[3-(7H-pyrrolo[2,3-d]pyrimidin-4-yl)-3,8-diaza-bicyclo[3.2.1]octane-8-carbonyl]-benzenesulfonamide]
< 100	100 to 500	> 500	100 to 500					O=C(C1CCOC1)N1CCN(c2ncnc3[nH]ccc23)CC12CC2 (centres unmarked) [Example 7, [7-(7H-Pyrrolo[2,3-d]pyrimidin-4-yl)-4,7-diazaspiro[2.5]oct-4-yl]-(tetrahydrofuran-3-yl)methanone]
				< 100	> 500	> 500	100 to 500	N#Cc1cccc(CC(=O)N2CCN(c3ncnc4[nH]cc(Cl)c34)CC23CC3)c1 [Example 323, 3-{2-[7-(5-Chloro-7H-pyrrolo[2,3-d]pyrimidin-4-yl)-4,7-diaza-spiro[2.5]oct-4-yl]-2-oxo-ethyl}-benzonitrile]
< 100	100 to 500	> 500	100 to 500					N#Cc1cccc(CC(=O)N2CCN(c3ncnc4[nH]ccc34)CC23CC3)c1 [Example 25, 3-{2-Oxo-2-[7-(7H-pyrrolo[2,3-d]pyrimidin-4-yl)-4,7-diazaspiro[2.5]oct-4-yl]-ethyl}benzonitrile]
< 100	< 100	> 500	100 to 500					N#Cc1ccc(C(=O)N2[C@@H]3CC[C@H]2CN(c2ncnc4[nH]ccc24)C3)cc1 [Example 31, 4-[3-(7H-Pyrrolo[2,3-d]pyrimidin-4-yl)-3,8-diazabicyclo[3.2.1]octane-8-carbonyl]benzonitrile]
< 100	< 100	> 500	100 to 500					O=C(c1cccnc1)N1CCN(c2ncnc3[nH]ccc23)CC12CC2 [Example 42, Pyridin-3-yl-[7-(7H-pyrrolo[2,3-d]pyrimidin-4-yl)-4,7-diazaspiro[2.5]oct-4-yl]methanone]
				< 100	< 100	> 500	100 to 500	O=C(c1cnc2ccccc2n1)N1[C@@H]2CC[C@H]1CN(c1ncnc3[nH]ccc13)C2 [Example 345, [3-(7H-Pyrrolo[2,3-d]pyrimidin-4-yl)-3,8-diaza-bicyclo[3.2.1]oct-8-yl]-quinoxalin-2-yl-methanone]
				< 100	< 100	> 500	100 to 500	CC(=O)Nc1ccc(C(=O)N2[C@@H]3CC[C@@H]2CN(c2ncnc4[nH]ccc24)C3)cc1 [Example 354, N-{4-[3-(7H-Pyrrolo[2,3-d]pyrimidin-4-yl)-3,8-diaza-bicyclo[3.2.1]octane-8-carbonyl]-phenyl}-acetamide]
				100 to 500	100 to 500	> 500	100 to 500	N#CCc1ccc(CC(=O)N2CCN(c3nc(N)nc4[nH]ccc34)CC23CC3)cc1 [Example 307, (4-{2-[7-(2-Amino-7H-pyrrolo[2,3-d]pyrimidin-4-yl)-4,7-diaza-spiro[2.5]oct-4-yl]-2-oxo-ethyl}-phenyl)-acetonitrile]
				100 to 500	> 500	> 500	100 to 500	COc1cnc2[nH]ccc2c1N1CCN(C(=O)c2cccc(C#N)c2)C2(CC2)C1 [Example 287, 3-[7-(5-Methoxy-1H-pyrrolo[2,3-b]pyridin-4-yl)-4,7-diaza-spiro[2.5]octane-4-carbonyl]-benzonitrile]
